pIC50: −log10 of the molar value.
Target: Ephrin type-A receptor 2 (Homo sapiens, UniProt P29317)
Assay: In Vitro Biochemical Kinase Assay
From the text: In vitro biochemical kinase assays were done using recombinant human EPHA2. compounds were subjected to in vitro biochemical kinase assays done using recombinant human ephrin type-A receptor 2 (EPHA2) (expressed in insect cells) in a Z′-LYTE FRET-based kinase assay.

Ephrin type-A receptor 2, sequence (P29317 whole entry): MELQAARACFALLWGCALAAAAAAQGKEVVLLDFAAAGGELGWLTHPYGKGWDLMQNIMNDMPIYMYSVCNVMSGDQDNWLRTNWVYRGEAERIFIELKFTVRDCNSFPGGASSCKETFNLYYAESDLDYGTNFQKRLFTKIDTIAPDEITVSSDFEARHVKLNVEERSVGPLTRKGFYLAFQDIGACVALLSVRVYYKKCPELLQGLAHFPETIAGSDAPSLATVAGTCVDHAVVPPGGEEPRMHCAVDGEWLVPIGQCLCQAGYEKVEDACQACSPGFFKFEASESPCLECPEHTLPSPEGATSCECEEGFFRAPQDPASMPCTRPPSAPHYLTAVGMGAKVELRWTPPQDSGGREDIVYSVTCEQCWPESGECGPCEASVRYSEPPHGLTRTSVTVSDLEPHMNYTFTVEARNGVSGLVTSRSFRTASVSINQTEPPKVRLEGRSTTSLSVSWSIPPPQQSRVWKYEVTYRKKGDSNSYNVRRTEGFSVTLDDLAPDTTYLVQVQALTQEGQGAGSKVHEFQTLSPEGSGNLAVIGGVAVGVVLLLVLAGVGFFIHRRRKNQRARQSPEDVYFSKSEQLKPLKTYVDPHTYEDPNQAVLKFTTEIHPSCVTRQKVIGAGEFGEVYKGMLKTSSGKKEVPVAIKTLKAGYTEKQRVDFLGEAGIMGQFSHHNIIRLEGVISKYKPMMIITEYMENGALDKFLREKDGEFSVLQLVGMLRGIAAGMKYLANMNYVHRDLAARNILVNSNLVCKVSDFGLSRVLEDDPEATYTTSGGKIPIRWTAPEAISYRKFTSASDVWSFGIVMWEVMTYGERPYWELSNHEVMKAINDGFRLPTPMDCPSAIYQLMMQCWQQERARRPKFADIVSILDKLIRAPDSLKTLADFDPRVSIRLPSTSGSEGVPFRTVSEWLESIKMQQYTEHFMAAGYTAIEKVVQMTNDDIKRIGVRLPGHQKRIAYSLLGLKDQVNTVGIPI

Row | SMILES | pIC50
1 | CCN1CCN(Cc2ccc(NC(=O)c3cc(NC(=O)c4cncc(-c5cccs5)c4)cc(OC)c3)cc2C(F)(F)F)CC1 [MLS000911581] | < 5.00
2 | CCN1CCN(Cc2ccc(NC(=O)c3cncc(NC(=O)c4cncc(-c5cccs5)c4)c3)cc2C(F)(F)F)CC1 [US20250195508, Name TL5-139] | < 5.00
3 | CCN1CCN(Cc2ccc(NC(=O)c3ccnc(NC(=O)c4cncc(-c5cccs5)c4)c3)cc2C(F)(F)F)CC1 [US20250195508, Name TL5-145] | < 5.00

Source: BindingDB's records for patent US20250195508 (University of Central Florida Research Foundation, 2025)
